Legend:
[1] = target: T1, rabbit reticulocyte 15-LO (Oryctolagus cuniculus, UniProt P12530); test: Rabbit Reticulocyte 15-LO Assay (h15LO); format: biochemical; conditions: Table 2; for h15LO, value given as bare %: concentration not given; for IC50: 2U rabbit reticulocyte 15-LO, 174 μM linoleic acid, 15 minutes at 4° C.
T1 construct: Fifteen-lipoxygenase was obtained from phenylhydrazine-treated rabbits and purified per the method of Rapoport; from tissue; host or cells: reticulocytes of phenylhydrazine-treated rabbits
T1 sequence (P12530 1-663): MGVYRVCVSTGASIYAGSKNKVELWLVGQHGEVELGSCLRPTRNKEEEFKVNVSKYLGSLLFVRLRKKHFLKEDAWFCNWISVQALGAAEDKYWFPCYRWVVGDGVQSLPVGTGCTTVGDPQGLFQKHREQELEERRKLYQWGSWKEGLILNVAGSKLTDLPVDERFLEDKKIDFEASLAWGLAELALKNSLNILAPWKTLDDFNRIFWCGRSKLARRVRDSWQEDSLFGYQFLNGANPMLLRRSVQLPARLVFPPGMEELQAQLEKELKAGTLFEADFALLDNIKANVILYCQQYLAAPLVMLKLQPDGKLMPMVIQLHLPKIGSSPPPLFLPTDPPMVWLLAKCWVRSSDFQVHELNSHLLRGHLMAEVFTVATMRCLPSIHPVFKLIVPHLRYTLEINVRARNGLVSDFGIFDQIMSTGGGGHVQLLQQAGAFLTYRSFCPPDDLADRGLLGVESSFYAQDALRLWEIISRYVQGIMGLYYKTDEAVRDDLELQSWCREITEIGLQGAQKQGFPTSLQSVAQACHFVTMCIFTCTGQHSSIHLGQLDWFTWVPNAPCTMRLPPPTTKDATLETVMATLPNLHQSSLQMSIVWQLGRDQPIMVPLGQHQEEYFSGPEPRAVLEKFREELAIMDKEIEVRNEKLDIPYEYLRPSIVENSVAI
How it was run: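 Purified rabbit reticulocyte 15-LO (2U) incubated with inhibitor and 174 μM linoleic acid in PBS with 0.2% Na cholate for 15 minutes at 4° C. 13-HPODE quantified by peak area against 13-HODE standard curve; % inhibition relative to uninhibited reaction.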

Compound | melting point | IC50 [1] [nM] | further results
Nc1cc(C(=O)Nc2ccc(F)cc2)ccc1OC(F)(F)F [Example 146, 3-Amino-4-trifluoromethoxy-N-(4-fluoro-phenyl)-benzamide] | 139 to 140 °C |  | h15LO, value given as bare % [1]: 35.29%
COc1ccc(C(=O)Nc2ccccc2)cc1Oc1ccccc1 [Example 54, 3-Phenoxy-4-methoxy-N-phenyl-benzamide] | 200 to 201 °C |  | inhibition at 10 µM ([1]; 0.25 h, @ 10 μM, read-out: h15LO % @ 10 μM): 60%
COc1ccc(C(=O)Nc2ccccc2)cc1NS(=O)(=O)c1ccc(NC(C)=O)cc1 [Example 139, 3-(4-Acetylamino-benzenesulfonylamino)-4-methoxy-N-phenyl-benzamide] | 250 to 251 °C | 104 | 
COc1ccc(C(=O)Nc2ccccc2)cc1Nc1ccc(C2=NC(C)(C)CO2)cc1 [Example 44, 3-[4-(4,4-Dimethyl-4,5-dihydro-oxazol-2-yl)-phenylamino]-4-methoxy-N-phenyl-benzamide] | 221 to 222 °C | 25 | 
COc1ccc(C(=O)Nc2ccc(F)c(F)c2)cc1Nc1cccc(C(F)(F)F)c1 [Example 48, 4-Methoxy-3-(3-trifluoromethyl-phenylamino)-N-(3,4-difluorophenyl)-benzamide] | 166 to 169 °C | 28 | 
COc1ccc(C(=O)Nc2ccccc2)cc1Nc1cc(C)cc(C)c1 [Example 36, 3-(3,5-Dimethyl-phenylamino)-4-methoxy-N-phenyl-benzamide] | 198 to 199 °C | 11 | 
COc1ccc(C(=O)Nc2ccccc2)cc1NC(=S)Nc1cc(C)cc(C)c1 [Example 99, 3-[3-(3,5-Dimethylphenyl)-thioureido]-4-methoxy-N-phenyl-benzamide] | 203 to 205 °C | 11 | 
COc1ccc(C(=O)Nc2ccc(C)c(C)c2)cc1NC(=S)Nc1cccc(C)c1 [Example 102, N-(3,4-Dimethylphenyl)-4-methoxy-3-(3-m-tolyl-thioureido)-benzamide] | 155 to 160 °C | 170 | 
COc1ccc(C(=O)Nc2ccc(Cl)c(Cl)c2)cc1NS(=O)(=O)c1cc(Cl)cc(Cl)c1 [Example 117, 3-(3,5-Dichloro-benzenesulfonylamino)-4-methoxy-N-(3,4-dichlorophenyl)-benzamide] | > 230 °C (dec.) |  | 
Nc1cc(NC(=O)c2ccc(Cl)c(Cl)c2)ccc1F [Example 22, 3,4-Dichloro-N-(3-amino-4-fluorophenyl)-benzamide] | 151 to 153 °C |  | 
COc1ccc(NC(=O)c2ccccc2)cc1Nc1ccccc1 [Example 49, N-[3-(Phenylamino)-4-methoxy-phenyl]-benzamide] | 209 to 210 °C |  | 
COc1ccc(C(=O)Nc2cc(C)cc(C)c2)cc1NC(=S)Nc1cccc(C)c1 [Example 103, N-(3,5-Dimethylphenyl)-4-methoxy-3-(3-m-tolyl-thioureido)-benzamide] | 188 to 189 °C |  | 
COc1ccc(C(=O)Nc2cccnc2)cc1NC(=S)Nc1ccc(Cl)c(Cl)c1 [Example 100, 3-[3-(3,4-Dichlorophenyl)-thioureido]-4-methoxy-N-pyridin-3-yl-benzamide] | 179 to 180 °C |  | 
COc1ccc(NC(=O)c2ccc(F)c(F)c2)cc1NCc1cccc(C(=O)O)c1 [Example 246, 3-{[5-(3,4-Difluoro-benzoylamino)-2-methoxy-phenylandno]-methyl}-benzoic Acid] |  |  | h15LO, value given as bare % [1]: 59.75%
Cc1ccc(C(=O)Nc2ccccc2)cc1N [Example 1, 3-Amino-4-methyl-N-phenyl-benzamide] | 149 to 151 °C |  | 
COc1ccc(C(=O)Nc2cccnc2)cc1NCc1cccs1 [Example 262, 4-Methoxy-3-[(thiophen-2-ylmethyl)-amino]-N-pyridin-3-yl-benzamide] |  |  | h15LO, value given as bare % [1]: 67.58%

Compound | melting point | IC50 [1] [nM] | further results
COc1ccc(C(=O)Nc2ccc(F)cc2)cc1NS(=O)(=O)c1cccc(C#N)c1 [Example 189, 3-(3-Cyano-benzenesulfonylamino)-4-methoxy-N-(4-fluoro-phenyl)-benzamide] |  |  | h15LO, value given as bare % [1]: 97.17%
COc1ccc(C(=O)Nc2ccc(F)c(F)c2)cc1NS(=O)(=O)c1cccc([N+](=O)[O-])c1 [Example 180, 3-(3-Nitro-benzenesufonylamino)-4-methoxy-N-(3,4-difluoro-phenyl)-benzamide] |  | 36 | 
COc1ccc(NC(=O)Nc2ccccc2)cc1N [Example 24, 1-(3-Amino-4-methoxyphenyl)-3-phenyl-urea] | 174 to 175 °C |  | 
CCOC(=O)c1cccc(NC(=O)c2ccc(OC)c(N)c2)c1 [Example 148, 3-(3-Amino-4-methoxy-benzoylamino)-benzoic Acid Ethyl Ester] |  | 613 | 
COc1ccc(C(=O)Nc2ccc(F)c(F)c2)cc1NCc1cccc(C(=O)O)c1 [Example 230, 3-{[5-(3,4-Difluoro-phenylcarbamoyl)-2-methoxy-phenylamino]-methyl}-benzoic Acid] |  |  | h15LO, value given as bare % [1]: 92.57%
COc1ccc(C(=O)Nc2ccccc2)cc1NCc1ccc(C)c(C)c1 [Example 242, 3-(3,4-Dimethyl-benzylamino)-4-methoxy-N-phenyl-benzamide] |  |  | h15LO, value given as bare % [1]: 50%
COc1ccc(C(=O)Nc2ccccc2)cc1N(S(=O)(=O)c1cc(Cl)cc(Cl)c1)S(=O)(=O)c1cc(Cl)cc(Cl)c1 [Example 251, 3-[Bis[(3,5-dichlorophenyl)sulfonyl]amino]-4-methoxy-N-phenyl-benzamide] |  |  | h15LO, value given as bare % [1]: 62.01%
Cc1ccc(C(=O)Nc2ccccc2)cc1NC(=O)c1cc(Cl)cc(Cl)c1 [Example 255, 3-[(3,5-Dichlorobenzoyl)amino]-4-methyl-N-phenyl-benzamide] |  |  | h15LO, value given as bare % [1]: 47%
COc1ccc(C(=O)Nc2ccc(F)cc2)cc1Nc1ccc(F)cc1 [Example 155, 3-(4-Fluoro-phenylamino)-4-methoxy-N-(4-fluoro-phenyl)-benzamide] |  |  | h15LO, value given as bare % [1]: 94.44%
COc1ccc(NC(=O)c2ccc(Cl)c(Cl)c2)cc1Nc1cccc(C(F)(F)F)c1 [Example 160, 3,4-Dichloro-N-[4-methoxy-3-(3-trifluoromethyl-phenylamino)-phenyl]-benzamide] |  | 119 | 
Nc1cc(C(=O)Nc2ccccc2)ccc1Cl [Example 13, 3-Amino-4-chloro-N-phenyl-benzamide] | 194 to 197 °C |  | 
CCCCc1ccc(CNc2cc(C(=O)Nc3ccccc3)ccc2OC)cc1 [Example 239, 3-(4-Butyl-benzylamino)-4-methoxy-N-phenyl-benzamide] |  |  | h15LO, value given as bare % [1]: 58.44%
CCCCCCCCCCCCCCCCCCS(=O)(=O)Nc1cc(C(=O)Nc2ccccc2)ccc1OC [Example 184, 3-(Octadecane-1-sulfonylamino)-4-methoxy-N-phenyl-benzamide] |  | 732 | 
CCCCCCCCCCS(=O)(=O)Nc1cc(C(=O)Nc2ccccc2)ccc1OC [Example 179, 3-(Decane-1-sulfonylamino)-4-methoxy-N-phenyl-benzamide] |  | 7 | 
CCOC(=O)c1cccc(NC(=O)c2ccc(OC)c(Nc3cccc(C(F)(F)F)c3)c2)c1 [Example 157, 3-[4-Methoxy-3-(3-trifluoromethyl-phenylamino)-benzoylamino]-benzoic Acid Ethyl Ester] |  |  | h15LO, value given as bare % [1]: 78.83%

Now from value to compound, other results behind:

melting point | IC50 [1] [nM] | Compound | further results
 | 221 | COc1ccc(C(=O)Nc2ccccc2)cc1NCc1cccc(C(F)(F)F)c1 [Example 269, 4-Methoxy-3-(3-trifluoromethyl-benzylamino)-N-phenyl-benzamide] | 
 | 224 | COc1ccc(C(=O)Nc2ccccc2)cc1NCc1cccc(Cl)c1 [Example 231, 3-(3-Chloro-benzylamino)-4-methoxy-N-phenyl-benzamide] | 
 | 40 | COc1ccc(C(=O)Nc2ccccc2)cc1CNC(=S)Nc1cc(Cl)cc(Cl)c1 [Example 247, 3-[3-(3,5-Dichloro-phenyl)-thioureidomethyl]-4-methoxy-N-phenyl-benzamide] | 
 | 79 | COc1ccc(C(=O)Nc2ccccc2)cc1NCc1cccc(O)c1 [Example 213, 3-(3-Hydroxy-benzylamino)-4-methoxy-N-phenyl-benzamide] | 
 | 161 | COc1ccc(C(=O)Nc2ccccc2)cc1NCc1cc(C)cc(C)c1 [Example 218, 4-Methoxy-3-(3,5-dimethyl-benzylamino)-N-phenyl-benzamide] | 
 | 391 | COc1ccc(C(=O)Nc2ccccc2)cc1NCc1ccc(F)c(F)c1 [Example 274, 3-(3,4-Difluoro-benzylamino)-4-methoxy-N-phenyl-benzamide] | 
 | 186 | COc1ccc(C(=O)Nc2ccc(F)cc2)cc1NCc1cccs1 [Example 260, 4-Methoxy-3-[(thiophen-2-ylmethyl)-amino]-N-(4-fluoro-phenyl)-benzamide] | 
 | 118 | COc1ccc(CNc2cc(C(=O)Nc3ccccc3)ccc2OC)cc1 [Example 216, 4-Methoxy-3-(4-methoxy-benzylamino)-N-phenyl-benzamide] | 

Source: patent US6528528B2 (Warner-Lambert Company, priority 1997, dated 2003)
